Values quoted from earlier work, collected in patent US20100041622A1, “Compositions containing aminoalkanes and aminoalkane derivatives” (priority 2008, published 2010).

tested on: vasoconstrictor activity; conditions: see U.S. Pat. No. 2,350,318

**Q.** For `CCC(C)CC(C)N` (centres unmarked) [2-amino-4-methylhexane], which “vasoconstrictor activity compared to ephedrine or amphetamine” value is on record?
**A.** greater vasoconstrictor activity

tested on: vasoconstrictor activity (blood pressure of pithed animal subject); conditions: average epinephrine equivalent per 1 mg of sulfate derivative

**Q.** Which “Epinephrine equivalent (micrograms (μg)) of 1 mg of the sulfate salt of the aminoalkane” value (from here on “Epinephrine equivalent (micrograms (μg))”) does the source give for `CC(C)C(C)CCN` (centres unmarked) [1-amino-3,4-dimethylpentane] here?
**A.** 1.720 µg

**Q.** With `CC(C)CC(C)CCN` (centres unmarked) [1-amino-3,5-dimethylhexane] as the molecule, how does the “Epinephrine equivalent (micrograms (μg))” value read?
**A.** 0.660 µg

**Q.** With `CC(C)CCN` [1-amino-3-methyl butane] as the molecule, how does the “Epinephrine equivalent (micrograms (μg))” value read?
**A.** 0.238 µg

**Q.** Which “Epinephrine equivalent (micrograms (μg))” value does the source give for `CCC(C)CCN` (centres unmarked) [1-amino-3-methyl pentane] here?
**A.** 0.193 µg

**Q.** With `CCCCC(C)CCN` (centres unmarked) [1-amino-3-methylheptane] as the molecule, how does the “Epinephrine equivalent (micrograms (μg))” value read?
**A.** 1.230 µg

**Q.** For `CCCC(C)CCN` (centres unmarked) [1-amino-3-methylhexane], which “Epinephrine equivalent (micrograms (μg))” value is on record?
**A.** 0.108 µg

**Q.** With `CC(C)CCCN` [1-amino-4-methyl pentane] as the molecule, how does the “Epinephrine equivalent (micrograms (μg))” value read?
**A.** 0.530 µg

**Q.** For `CCCCCCCN` [1-amino-heptane], which “Epinephrine equivalent (micrograms (μg))” value is on record?
**A.** 0.276 µg

**Q.** Which “Epinephrine equivalent (micrograms (μg))” value does the source give for `CCCCCCN` [1-amino-hexane] here?
**A.** 0.766 µg

**Q.** Which “Epinephrine equivalent (micrograms (μg))” value does the source give for `CCCCCCCCN` [1-amino-octane] here?
**A.** nil

**Q.** Which “Epinephrine equivalent (micrograms (μg))” value does the source give for `CCCCCN` [1-amino-pentane] here?
**A.** 0.210 µg

**Q.** Which “Epinephrine equivalent (micrograms (μg))” value does the source give for `CC(C)CCC(C)C(C)N` (centres unmarked) [2-amino-3,6-dimethylheptane] here?
**A.** 0.910 µg

**Q.** For `CCCCCC(O)C(C)N` (centres unmarked) [2-amino-3-hydroxy-octane], which “Epinephrine equivalent (micrograms (μg))” value is on record?
**A.** 0.122 µg

**Q.** With `CCCCC(C)C(C)N` (centres unmarked) [2-amino-3-methylheptane] as the molecule, how does the “Epinephrine equivalent (micrograms (μg))” value read?
**A.** 0.530 µg

**Q.** For `CCCC(C)C(C)N` (centres unmarked) [2-amino-3-methylhexane], which “Epinephrine equivalent (micrograms (μg))” value is on record?
**A.** 0.858 µg

**Q.** Which “Epinephrine equivalent (micrograms (μg))” value does the source give for `CC(N)CC(C)(C)C` (centres unmarked) [2-amino-4,4-dimethylpentane] here?
**A.** 0.083 µg

**Q.** Which “Epinephrine equivalent (micrograms (μg))” value does the source give for `CC(N)CC(C)CC(C)(C)C` (centres unmarked) [2-amino-4,6,6-trimethylheptane] here?
**A.** nil

**Q.** For `CC(C)CC(C)CC(C)N` (centres unmarked) [2-amino-4,6-dimethylheptane], which “Epinephrine equivalent (micrograms (μg))” value is on record?
**A.** 0.193 µg

**Q.** Which “Epinephrine equivalent (micrograms (μg))” value does the source give for `CCCCCCC(C)CC(C)N` (centres unmarked) [2-amino-4-methyldecane] here?
**A.** 0.242 µg

**Q.** Which “Epinephrine equivalent (micrograms (μg))” value does the source give for `CCCC(C)CC(C)N` (centres unmarked) [2-amino-4-methylheptane] here?
**A.** 0.786 µg

**Q.** For `CCC(C)CC(C)N` (centres unmarked) [2-amino-4-methylhexane], which “Epinephrine equivalent (micrograms (μg))” value is on record?
**A.** 3.520 µg

**Q.** With `CCCCC(C)CC(C)N` (centres unmarked) [2-amino-4-methyloctane] as the molecule, how does the “Epinephrine equivalent (micrograms (μg))” value read?
**A.** 0.475 µg

**Q.** Which “Epinephrine equivalent (micrograms (μg))” value does the source give for `CC(C)CC(C)N` (centres unmarked) [2-amino-4-methylpentane] here?
**A.** 0.840 µg

**Q.** Which “Epinephrine equivalent (micrograms (μg))” value does the source give for `CCC(CC)CCC(C)N` (centres unmarked) [2-amino-5-ethylheptane] here?
**A.** 0.358 µg

**Q.** Which “Epinephrine equivalent (micrograms (μg))” value does the source give for `CCC(C)CCC(C)N` (centres unmarked) [2-amino-5-methylheptane] here?
**A.** 0.980 µg

**Q.** With `CC(C)CCC(C)N` (centres unmarked) [2-amino-5-methylhexane] as the molecule, how does the “Epinephrine equivalent (micrograms (μg))” value read?
**A.** 1.560 µg

**Q.** Which “Epinephrine equivalent (micrograms (μg))” value does the source give for `C=C(C)CCC(C)N` (centres unmarked) [2-amino-5-methylhexene-5] here?
**A.** 0.504 µg

**Q.** With `CC(C)CCCC(C)N` (centres unmarked) [2-amino-6-methylheptane] as the molecule, how does the “Epinephrine equivalent (micrograms (μg))” value read?
**A.** 2.620 µg

**Q.** For `CC(C)=CCCC(C)N` (centres unmarked) [2-amino-6-methylheptene-5], which “Epinephrine equivalent (micrograms (μg))” value is on record?
**A.** 0.391 µg

**Q.** Which “Epinephrine equivalent (micrograms (μg))” value does the source give for `C=CCCC(C)N` (centres unmarked) [2-amino-hexene-5] here?
**A.** 0.193 µg

**Q.** For `CCCCCCC(C)N` (centres unmarked) [2-amino-octane], which “Epinephrine equivalent (micrograms (μg))” value is on record?
**A.** 0.510 µg

**Q.** For `CCCC(C)N` (centres unmarked) [2-amino-pentane], which “Epinephrine equivalent (micrograms (μg))” value is on record?
**A.** 0.395 µg

**Q.** With `CCCCCC(C)N` (centres unmarked) [2-aminoheptane] as the molecule, how does the “Epinephrine equivalent (micrograms (μg))” value read?
**A.** 3.100 µg

**Q.** For `CCCCC(C)N` (centres unmarked) [2-aminohexane], which “Epinephrine equivalent (micrograms (μg))” value is on record?
**A.** 0.901 µg

**Q.** With `CCC(N)CCC(C)C` (centres unmarked) [3-amino-6-methylheptane] as the molecule, how does the “Epinephrine equivalent (micrograms (μg))” value read?
**A.** nil

**Q.** Which “Epinephrine equivalent (micrograms (μg))” value does the source give for `CCCCCC(N)CC` (centres unmarked) [3-amino-octane] here?
**A.** 0.142 µg

**Q.** For `CCCCC(N)CC` (centres unmarked) [3-aminoheptane], which “Epinephrine equivalent (micrograms (μg))” value is on record?
**A.** 0.149 µg

**Q.** With `CC(C)CC(N)CC(C)C` [4-amino-2,6-dimethylheptane] as the molecule, how does the “Epinephrine equivalent (micrograms (μg))” value read?
**A.** nil

**Q.** For `CCCC(N)CCC` [4-aminoheptane], which “Epinephrine equivalent (micrograms (μg))” value is on record?
**A.** 0.048 µg

tested on: not given; conditions: hydrophilic-lipophilic balance value, known values

**Q.** For `CCCCCCCCCCCCCCCCCC(=O)OCC(O)CO` (centres unmarked) [Glyceryl Stearate], which HLB is on record?
**A.** 3.5

**Q.** Which HLB does the source give for Nonoxynol-9 here?
**A.** 12.9

**Q.** For PEG-4 lauryl ether, which HLB is on record?
**A.** 9.7

**Q.** For PEG-100 Stearate, which HLB is on record?
**A.** 18.8

**Q.** For Phosphatidylcholine, which HLB is on record?
**A.** 7.6

**Q.** With Sorbitan Palmitate as the molecule, how does the HLB read?
**A.** 6.7

**Q.** With Sorbitan monostearate as the molecule, how does the HLB read?
**A.** 4.7
